This passage reports EC50 and activation results from patent US20260199369A1, “COMPOUNDS FOR THE TREATMENT OF NEUROMUSCULAR DISORDERS” (NMD PHARMA A/S, priority 2022, published 2026).

The target in experiment [1] is T1, CIC-1 ion channel (Rattus norvegicus, UniProt P35524).
T1 construct: from tissue; host or cells: whole soleus muscle of 12-14 week old Wistar rats
T1 sequence (P35524 1-994): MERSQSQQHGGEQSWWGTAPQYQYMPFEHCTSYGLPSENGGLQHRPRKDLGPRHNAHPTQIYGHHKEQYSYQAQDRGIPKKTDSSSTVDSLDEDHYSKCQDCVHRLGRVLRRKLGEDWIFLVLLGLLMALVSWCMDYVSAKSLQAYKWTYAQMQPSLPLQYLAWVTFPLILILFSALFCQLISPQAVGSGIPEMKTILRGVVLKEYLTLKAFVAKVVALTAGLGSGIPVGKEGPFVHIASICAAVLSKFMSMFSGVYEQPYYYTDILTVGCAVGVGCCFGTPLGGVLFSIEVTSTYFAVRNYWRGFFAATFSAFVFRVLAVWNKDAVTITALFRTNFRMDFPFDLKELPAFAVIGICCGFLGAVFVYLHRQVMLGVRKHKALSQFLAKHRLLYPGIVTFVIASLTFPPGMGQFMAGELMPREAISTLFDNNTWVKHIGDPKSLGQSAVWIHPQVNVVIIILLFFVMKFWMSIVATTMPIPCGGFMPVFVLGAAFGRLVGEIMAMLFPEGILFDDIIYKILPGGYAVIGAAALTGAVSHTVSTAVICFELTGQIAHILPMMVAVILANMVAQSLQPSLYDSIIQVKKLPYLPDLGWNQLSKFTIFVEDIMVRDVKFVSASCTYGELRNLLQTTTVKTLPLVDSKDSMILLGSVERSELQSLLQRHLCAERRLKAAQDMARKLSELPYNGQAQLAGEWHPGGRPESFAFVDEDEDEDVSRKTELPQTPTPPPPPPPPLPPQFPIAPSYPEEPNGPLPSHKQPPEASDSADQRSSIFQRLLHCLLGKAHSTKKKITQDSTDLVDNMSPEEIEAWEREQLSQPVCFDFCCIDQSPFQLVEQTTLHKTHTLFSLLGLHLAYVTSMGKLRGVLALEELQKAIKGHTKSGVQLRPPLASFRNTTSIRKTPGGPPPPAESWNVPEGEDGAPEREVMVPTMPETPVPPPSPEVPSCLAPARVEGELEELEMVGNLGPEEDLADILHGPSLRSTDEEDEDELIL
In words: Electrophysiological measurement of compound inhibition of CIC-1 in rat muscle (Gm, three micro-electrodes technique). Format: cell-based. The following applies: Gm in fibres of whole rat soleus muscle, four increasing compound concentrations; read-out: Potency Range (EC50, inhibition of CIC-1 ion channel). The method, then:
Apparent CIC-1 affinity was reported by the concentration of compound at which 50% of the compound's full inhibition of CIC-1 was observed (EC50) (see also WO2019/115777).
Experimentally, Gm was measured in individual fibres of whole rat soleus muscles using a three micro-electrodes technique described in this example and in full detail elsewhere (Riisager et al., Determination of cable parameters in skeletal muscle fibres during repetitive firing of action potentials. Journal of Physiology, 2014, 592, 4417-4429). Briefly, intact rat soleus muscles were dissected out from 12-14 week old Wistar rats and placed in an experimental chamber that was perfused with a standard Krebs Ringer solution containing 122 mM NaCl, 25 mM NaHCO3, 2.8 mM KCl, 1.2 mM KH2PO4, 1.2 mM MgSO4, 1.3 mM CaCl2), 5.0 mM D-glucose. During experiments, the solution was kept at approx. 30° C. and continuously equilibrated with a mixture of 95% O2 and 5% CO2, pH ~7.4. The experimental chamber was placed in Nikon upright microscope that was used to visualize individual muscle fibres and the three electrodes (glass pipettes filled with 2 M potassium citrate). For Gm measurements, the electrodes were inserted into the same fibre with known inter-electrode distances of 0.35-0.5 mm (V1-V2, X1) and 1.1-1.5 mm (V1-V3, X3). The membrane potential of the impaled muscle fibre was recorded by all electrodes. Two of the electrodes were furthermore used to inject 50 ms current pulses of −30 nA. […] The steady state voltage deflection at each distance was divided by the magnitude of current injected (−30 nA) and the resulting transfer resistances were plotted against inter-electrode distance and the data was fitted to a mono-exponential function from which Gm could be calculated using linear cable theory.
To establish a dose response relationship, Gm was first determined in 10 muscle fibres in the absence of compound and then at four increasing compound concentrations with Gm determinations in 5-10 fibres at each concentration. The average Gm values at each concentration were plotted against compound concentration and the data was fitted to sigmoidal function to obtain an EC50 value.

Experiment [2] relates to isolated rat soleus muscles. Description: Measurement of force in an in vitro model: recovery of contractile force of isolated rat soleus nerve-muscle preparation after tubocurarine. The following applies: 40 min, 10 μM of test compound, tubocurarine 115 nM, after 40 mins of compound exposure, read-out: Point increase (%): percentage increase of initial force that was restored. The method, then: The current disclosure relates to compounds that inhibit CIC-1 ion channels and increase muscle excitability and thereby improve muscle function in clinical conditions where muscle activation is failing. Such conditions result in loss of contractile function of skeletal muscle, weakness and excessive fatigue. In this series of experiments the compounds were tested for their ability to restore contractile function of isolated rat muscle when the neuromuscular transmission had been compromised akin to neuromuscular disorders.
Experimentally, soleus muscles from 4-5 wk old rats were isolated with the motor nerve remaining attached. The nerve-muscle preparations were mounted in experimental setups that enabled electrical stimulation of the motor nerve. Stimulation of the motor nerve led to activation of the muscle fibres and ensuing force production that was recorded. The nerve-muscle preparations were also in these experiments incubated in the standard Krebs Ringer (see example 15) and the solution was heated to 30° C. and continuously equilibrated with a mixture of 95% O2 and 5% CO2, pH ~7.4.
After mounting the nerve-muscle preparation in the experimental setup, the contractile function of the muscle was initially assessed under the control conditions. Sub-maximal concentration of tubocurarine (115 nM), an acetylcholine receptor antagonist, was then added to the experimental bath to impose partial inhibition of the ability of the motor nerve to activate the muscle fibres. The experimental condition mimics the failing neuromuscular transmission in a range of neuromuscular disorders. After addition of tubocurarine the contractile force declined over the next 90 minutes to 10-50% of the control force. The test compound was then added to obtain the required compound concentration in the bath and the contractile force recovered was measured. To quantify the ability of the compound to restore force the percentage of the initial force that was restored was determined after 40 mins of compound exposure and the point increase is reported in Tables 3 to 7.

A word on the EC50: it is the concentration needed to bring the measured effect to its halfway point. Turning to `Cc1ccc(CN2CCOc3cc(Cl)c(F)c(C(=O)O)c32)cc1` [Compound A-60, 7-Chloro-6-fluoro-4-[(p-tolyl)methyl]-3,4-dihydro-2H-1,4-benzoxazine-5-carboxylic acid], in experiment [1], the EC50 is 200 to 1000 nM. The activation at 10 µM in experiment [2] stood at 17%.
